Molecules are shown by their SMILES.

For the assay, the target named is H3 receptor (Rattus norvegicus, UniProt Q9QYN8). Description: H3 receptor binding, (3H)-N-α-methylhistamine displacement in rat cortical membranes. The note with it: male Sprague-Dawley rat brain cortical membranes, 30 minutes at 25° C., Cheng-Prusoff, geometric mean values of 2-10 separate experiments. Here is the method: Briefly, male Sprague-Dawley rat brain cortices were homogenized (1 g tissue/10 mL buffer) in 50 mM Tris-HCl/5 mM EDTA containing protease inhibitor cocktail (Calbiochem) using a polytron set at 20,500 rpm. Homogenates were centrifuged for 20 minutes at 40,000×g. The supernatant was decanted, and pellets were weighed. The pellet was resuspended by polytron homogenization in 40 mL 50 mM Tris-HCl/5 mM EDTA with protease inhibitors and centrifuged for 20 minutes at 40,000×g. […] Test compounds were added to the incubation mixtures prior to initiating the incubation assay by addition of the membranes. Thioperamide (3 μM) was used to determine nonspecific binding. Binding incubations were conducted for 30 minutes at 25° C. and terminated by addition of 2 mL of ice cold 50 mM Tris-HCl (H 7.7) and filtration through 0.3% polyethylenimine-soaked Unifilter plates (Packard). These filters were washed 4 additional times with 2 mL of ice-cold 50 mM Tris-HCl and dried for 1 hour. Radioactivity was determined using liquid scintillation counting techniques. Results were analyzed by Hill transformation and Ki values were determined using the Cheng-Prusoff equation.
Sequence of H3 receptor (Q9QYN8 1-397 isoform Q9QYN8-3): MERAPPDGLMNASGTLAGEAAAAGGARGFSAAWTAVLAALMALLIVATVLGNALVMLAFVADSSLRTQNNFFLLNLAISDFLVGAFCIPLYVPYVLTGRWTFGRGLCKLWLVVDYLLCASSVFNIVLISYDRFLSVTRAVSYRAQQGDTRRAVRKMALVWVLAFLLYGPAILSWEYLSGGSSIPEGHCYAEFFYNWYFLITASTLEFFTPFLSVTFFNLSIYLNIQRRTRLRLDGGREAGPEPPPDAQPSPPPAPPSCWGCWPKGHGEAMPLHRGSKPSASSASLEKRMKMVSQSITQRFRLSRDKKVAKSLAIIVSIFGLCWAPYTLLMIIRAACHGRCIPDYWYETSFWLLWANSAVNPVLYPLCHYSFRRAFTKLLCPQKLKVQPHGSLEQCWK
`C[C@H](CCOc1ccc(C(=O)C2CC2)cc1)N1CCN(C(=O)[C@@H](C)N)CC1` [Example 62, (4-(((3R)-3-(4-((2R)-2-aminopropanoyl)-1-piperazinyl)butyl)oxy)phenyl)(cyclopropyl)methanone]: the affinity corresponds to a Ki of 1.46 nM.
The same measure for `Cc1cccc(-c2nc(-c3ccc(OCCCN4CCN(C(=O)[C@@H](C)NC(=O)c5cccs5)CC4)cc3F)no2)c1` [Example 187, N-{(1R)-2-[4-(3-{3-fluoro-4-[5-(3-methylphenyl)-1,2,4-oxadiazol-3-yl]phenoxy}propyl)-1-piperazinyl]-1-methyl-2-oxoethyl}-2-thiophenecarboxamide]: 26.2 nM; for `C[C@@H](NC(=O)c1cccnc1)C(=O)N1CCN(CCCOc2ccc(-c3noc(-c4ccccc4)n3)c(F)c2)CC1` [Example 160, N-[(1R)-2-(4-{3-[3-fluoro-4-(5-phenyl-1,2,4-oxadiazol-3-yl)phenoxy]propyl}-1-piperazinyl)-1-methyl-2-oxoethyl]nicotinamide]: 2.29 nM; for `C[C@@H](NC(=O)c1cccs1)C(=O)N1CCN(CCCOc2ccc(-c3noc(CCC(=O)N4CCCC4)n3)c(F)c2)CC1` [Example 190, N-((1R)-2-{4-[3-(3-fluoro-4-{5-[3-oxo-3-(1-pyrrolidinyl)propyl]-1,2,4-oxadiazol-3-yl}phenoxy)propyl]-1-piperazinyl}-1-methyl-2-oxoethyl)-2-thiophenecarboxamide]: 7.69 nM.
Turning to `C[C@@H](NC(=O)c1cccs1)C(=O)N1CCN(CCCOc2ccc(-c3noc(-c4cccc(C#N)c4)n3)c(F)c2)CC1` [Example 188, N-{(1R)-2-[4-(3-{4-[5-(3-cyanophenyl)-1,2,4-oxadiazol-3-yl]-3-fluorophenoxy}propyl)-1-piperazinyl]-1-methyl-2-oxoethyl}-2-thiophenecarboxamide], the affinity, expressed as Ki, was 4.23 nM.
The same measure for `CCC(=O)N[C@H](C)C(=O)N1CCN(CCCOc2ccc(-c3noc(CC4CCCC4)n3)c(F)c2)CC1` [Example 170, N-{(1R)-2-[4-(3-{4-[5-(cyclopentylmethyl)-1,2,4-oxadiazol-3-yl]-3-fluorophenoxy}propyl)-1-piperazinyl]-1-methyl-2-oxoethyl}propanamide]: 8.74 nM; for `COc1cccc(C(=O)N[C@H](C)C(=O)N2CCN(CCCOc3ccc(C(=O)C4CC4)cc3)CC2)c1` [Example 193, N-[(1R)-2-(4-{3-[4-(cyclopropylcarbonyl)phenoxy]propyl}-1-piperazinyl)-1-methyl-2-oxoethyl]-3-methoxybenzamide]: 1.11 nM; for `O=C(c1ccc(OCCCN2CCN(C(=O)C[C@H]3CCCN3)CC2)cc1)C1CC1` [Example 86, Cyclopropyl(4-(3-(4-((2R)-pyrrolidinylacetyl)-1-piperazinyl)propoxy)phenyl)methanone]: 4.64 nM.
`C[C@@H](NC(=O)c1ccccc1Cl)C(=O)N1CCN(CCCOc2ccc(-c3noc(CC4CCCC4)n3)c(F)c2)CC1` [Example 182, 2-chloro-N-{(1R)-2-[4-(3-{4-[5-(cyclopentylmethyl)-1,2,4-oxadiazol-3-yl]-3-fluorophenoxy}propyl)-1-piperazinyl]-1-methyl-2-oxoethyl}benzamide]: affinity was put at a Ki of 2.78 nM.
The same measure for `CC[C@@H](N)C(=O)N1CCN(CCCOc2ccc(C(=O)C3CC3)cc2)CC1` [Example 69, (4-(3-(4-((2R)-2-aminobutanoyl)-1-piperazinyl)propoxy)phenyl)(cyclopropyl)methanone]: 1.24 nM; for `C[C@@H](NC(=O)c1cccnc1)C(=O)N1CCN(CCCOc2ccc(-c3noc(CC4CCCC4)n3)c(F)c2)CC1` [Example 181, N-{(1R)-2-[4-(3-{4-[5-(cyclopentylmethyl)-1,2,4-oxadiazol-3-yl]-3-fluorophenoxy}propyl)-1-piperazinyl]-1-methyl-2-oxoethyl}nicotinamide]: 1.67 nM; for `O=C(NCCC(=O)N1CCN(CCCOc2ccc(-c3noc(-c4ccccc4)n3)c(F)c2)CC1)[C@H]1CCCO1` [Example 155, (2R)-N-[3-(4-{3-[3-fluoro-4-(5-phenyl-1,2,4-oxadiazol-3-yl)phenoxy]propyl}-1-piperazinyl)-3-oxopropyl]tetrahydro-2-furancarboxamide]: 17.1 nM.
The same measure for `C[C@H](NC(=O)OC(C)(C)C)c1nc(-c2ccc(OCCCN3CCCN(C(=O)[C@@H](C)NC(=O)c4ccco4)CC3)cc2F)no1` [Example 146, Tert-butyl (1S)-1-{3-[2-fluoro-4-(3-{4-[(2R)-2-(2-furoylamino)propanoyl]-1,4-diazepan-1-yl}propoxy)phenyl]-1,2,4-oxadiazol-5-yl}ethylcarbamate]: 9.03 nM; for `C[C@@H](NC(=O)c1ccco1)C(=O)N1CCCN(CCCOc2ccc(-c3noc(C4CCCC4)n3)c(F)c2)CC1` [Example 144, N-[(1R)-2-(4-{3-[4-(5-cyclopentyl-1,2,4-oxadiazol-3-yl)-3-fluorophenoxy]propyl}-1,4-diazepan-1-yl)-1-methyl-2-oxoethyl]-2-furamide]: 1.36 nM; for `CC(C)(C)[C@@H](N)C(=O)N1CCN(CCCOc2ccc(C(=O)C3CC3)cc2)CC1` [Example 66, (4-(3-(4-((2R)-2-amino-3,3-dimethylbutanoyl)-1-piperazinyl)propoxy)phenyl)(cyclopropyl)methanone]: 12.1 nM.
`COc1ccc(C(=O)N[C@H](C)C(=O)N2CCN(CCCOc3ccc(-c4noc(CC5CCCC5)n4)c(F)c3)CC2)cc1` [Example 175, N-{(1R)-2-[4-(3-{4-[5-(cyclopentylmethyl)-1,2,4-oxadiazol-3-yl]-3-fluorophenoxy}propyl)-1-piperazinyl]-1-methyl-2-oxoethyl}-4-methoxybenzamide]: the Ki (usually the equilibrium dissociation constant of an inhibitor or competing ligand from its target) came to 1.88 nM.
As for `C[C@@H](N)C(=O)N1CCN(CCCOc2ccc(-c3noc(CC4CCCC4)n3)c(F)c2)CC1` [Example 168, (2R)-1-[4-(3-{4-[5-(cyclopentylmethyl)-1,2,4-oxadiazol-3-yl]-3-fluorophenoxy}propyl)-1-piperazinyl]-1-oxo-2-propanamine], the Ki was determined as 6.79 nM.
The same measure for `C[C@@H](NC(=O)c1ccco1)C(=O)N1CCCN(CCCOc2ccc(-c3noc(-c4ccncc4)n3)c(F)c2)CC1` [Example 150, N-{(1R)-2-[4-(3-{3-fluoro-4-[5-(4-pyridinyl)-1,2,4-oxadiazol-3-yl]phenoxy}propyl)-1,4-diazepan-1-yl]-1-methyl-2-oxoethyl}-2-furamide]: 12.6 nM; for `C[C@@H](NC(=O)c1ccco1)C(=O)N1CCCN(CCCOc2ccc(-c3noc(CCc4ccccc4)n3)c(F)c2)CC1` [Example 152, N-{(1R)-2-[4-(3-{3-fluoro-4-[5-(2-phenylethyl)-1,2,4-oxadiazol-3-yl]phenoxy}propyl)-1,4-diazepan-1-yl]-1-methyl-2-oxoethyl}-2-furamide]: 1.01 nM; for `CC(C)C(=O)N[C@H](C)C(=O)N1CCCN(CCCOc2ccc(-c3noc(CC4CCCC4)n3)c(F)c2)CC1` [Example 177, N-{(1R)-2-[4-(3-{4-[5-(cyclopentylmethyl)-1,2,4-oxadiazol-3-yl]-3-fluorophenoxy}propyl)-1,4-diazepan-1-yl]-1-methyl-2-oxoethyl}-2-methylpropanamide]: 1.78 nM.
`N#Cc1ccc(C(=O)NCCC(=O)N2CCN(CCCOc3ccc(-c4noc(-c5ccccc5)n4)c(F)c3)CC2)cc1` [Example 153, 4′-cyano-N-[3-(4-{3-[3-fluoro-4-(5-phenyl-1,2,4-oxadiazol-3-yl)phenoxy]propyl}-1-piperazinyl)-3-oxopropyl]benzamide]: the Ki was determined as 26.1 nM.
